Source: publication PMC9197583 (Chemical communications (Cambridge, England), 2022)

Target: T1, NrtA (Synechocystis sp. PCC 6803, UniProt P73452)
T1 sequence (P73452 30-446): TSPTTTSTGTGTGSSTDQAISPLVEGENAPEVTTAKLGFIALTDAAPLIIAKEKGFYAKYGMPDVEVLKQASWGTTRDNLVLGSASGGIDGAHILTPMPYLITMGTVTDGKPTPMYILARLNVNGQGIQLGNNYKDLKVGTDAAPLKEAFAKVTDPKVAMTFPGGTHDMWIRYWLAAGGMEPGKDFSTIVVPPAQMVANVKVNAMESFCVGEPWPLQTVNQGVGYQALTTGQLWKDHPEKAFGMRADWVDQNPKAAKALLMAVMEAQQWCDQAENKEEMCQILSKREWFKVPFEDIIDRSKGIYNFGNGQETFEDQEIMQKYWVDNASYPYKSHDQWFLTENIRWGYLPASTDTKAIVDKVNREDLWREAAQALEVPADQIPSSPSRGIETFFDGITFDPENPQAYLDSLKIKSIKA
Assay: isothermal titration calorimetry
Assay type: binding

Compound | Kd [nM]
O=[N+]([O-])O [nitrate] | 57 ± 23
O=NO [nitrite] | 230 ± 33
